Reference: PubChem BioAssay AID1963438 (Molecular Pharmacology Branch, DTP, NCI, 2024)

Test system: NCI-H510 multicellular tumor spheroid growth, % test/control
Assay: Anticancer human tumor NCI-H510 cell line growth inhibition [Asc];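 also: spheroids exposed to agents for 7 days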;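 as to viability, T/C: 100% = DMSO vehicle control wells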
Details: for IC50: curve of first compound; for viability, T/C: stronger effect = lower value
Method in brief: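 Spheroid model: tumor line + HUVEC + hMSC. Single agents and combinations; top conc. at/near clinical Cmax (10 microM if undetermined), half-log dilutions. DMSO stocks at 800-fold test concentration.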

[1] = second compound 0.01 µM, first compound 0.00316 µM
[2] = second compound 0.01 µM, first compound 0.01 µM
[3] = second compound 0.01 µM, first compound 0.0316 µM
[4] = second compound 0.01 µM, first compound 0.1 µM
[5] = second compound 0.01 µM, first compound 0.316 µM
[6] = second compound 0.01 µM, first compound 1 µM
[7] = second compound 0.0316 µM, first compound 0.00316 µM
[8] = second compound 0.0316 µM, first compound 0.01 µM
[9] = second compound 0.0316 µM, first compound 0.0316 µM
[10] = second compound 0.0316 µM, first compound 0.1 µM
[11] = second compound 0.0316 µM, first compound 0.316 µM
[12] = second compound 0.0316 µM, first compound 1 µM
[13] = second compound 0.1 µM, first compound 0.00316 µM
[14] = second compound 0.1 µM, first compound 0.01 µM
[15] = second compound 0.1 µM, first compound 0.0316 µM
[16] = second compound 0.1 µM, first compound 0.1 µM
[17] = second compound 0.1 µM, first compound 0.316 µM
[18] = second compound 0.1 µM, first compound 1 µM
[19] = second compound 0.316 µM, first compound 0.00316 µM
[20] = second compound 0.316 µM, first compound 0.01 µM
[21] = second compound 0.316 µM, first compound 0.0316 µM
[22] = second compound 0.316 µM, first compound 0.1 µM
[23] = second compound 0.316 µM, first compound 0.316 µM
[24] = second compound 0.316 µM, first compound 1 µM
[25] = second compound 1 µM, first compound 0.00316 µM
[26] = second compound 1 µM, first compound 0.01 µM
[27] = second compound 1 µM, first compound 0.0316 µM
[28] = second compound 1 µM, first compound 0.1 µM
[29] = second compound 1 µM, first compound 0.316 µM
[30] = second compound 1 µM, first compound 1 µM

CCN1CCN(Cc2ccc(Nc3ncc(F)c(-c4cc(F)c5nc(C)n(C(C)C)c5c4)n3)nc2)CC1 + CNC(C)C(=O)NC1CN(S(=O)(=O)c2cccc(S(=O)(=O)N3CCC4CCC(C(=O)NC(c5ccccc5)c5ccccc5)N4C(=O)C(NC(=O)C(C)NC)C3)c2)CCC2CCC(C(=O)NC(c3ccccc3)c3ccccc3)N2C1=O
IC50 (second compound 0.01 µM): > 1000 nM
IC50 (second compound 0.0316 µM): > 1000 nM
IC50 (second compound 0.1 µM): > 1000 nM
IC50 (second compound 0.316 µM): > 1000 nM
IC50 (second compound 1 µM): > 1000 nM
viability, T/C [1]: 109%
viability, T/C [2]: 117%
viability, T/C [3]: 124%
viability, T/C [4]: 112%
viability, T/C [5]: 150%
viability, T/C [6]: 128%
viability, T/C [7]: 108%
viability, T/C [8]: 94%
viability, T/C [9]: 114%
viability, T/C [10]: 113%
viability, T/C [11]: 117%
viability, T/C [12]: 136%
viability, T/C [13]: 113%
viability, T/C [14]: 95.5%
viability, T/C [15]: 99.3%
viability, T/C [16]: 108%
viability, T/C [17]: 108%
viability, T/C [18]: 117%
viability, T/C [19]: 114%
viability, T/C [20]: 117%
viability, T/C [21]: 110%
viability, T/C [22]: 115%
viability, T/C [23]: 107%
viability, T/C [24]: 128%
viability, T/C [25]: 111%
viability, T/C [26]: 112%
viability, T/C [27]: 107%
viability, T/C [28]: 115%
viability, T/C [29]: 123%
viability, T/C [30]: 127%

NC(=O)C(=Cn1cnc(-c2cc(C(F)(F)F)cc(C(F)(F)F)c2)n1)c1cncnc1 + CNC(C)C(=O)NC1CN(S(=O)(=O)c2cccc(S(=O)(=O)N3CCC4CCC(C(=O)NC(c5ccccc5)c5ccccc5)N4C(=O)C(NC(=O)C(C)NC)C3)c2)CCC2CCC(C(=O)NC(c3ccccc3)c3ccccc3)N2C1=O
IC50 (second compound 0.01 µM): > 300 nM
IC50 (second compound 0.0316 µM): > 300 nM
IC50 (second compound 0.1 µM): > 300 nM
IC50 (second compound 0.316 µM): > 300 nM
IC50 (second compound 1 µM): > 300 nM
viability, T/C (second compound 0.01 µM, first compound 0.000949 µM): 104%
viability, T/C (second compound 0.01 µM, first compound 0.003 µM): 112%
viability, T/C (second compound 0.01 µM, first compound 0.00949 µM): 104%
viability, T/C (second compound 0.01 µM, first compound 0.03 µM): 92.3%
viability, T/C (second compound 0.01 µM, first compound 0.0949 µM): 110%
viability, T/C (second compound 0.01 µM, first compound 0.3 µM): 101%
viability, T/C (second compound 0.0316 µM, first compound 0.000949 µM): 92.3%
viability, T/C (second compound 0.0316 µM, first compound 0.003 µM): 101%
viability, T/C (second compound 0.0316 µM, first compound 0.00949 µM): 102%
viability, T/C (second compound 0.0316 µM, first compound 0.03 µM): 108%
viability, T/C (second compound 0.0316 µM, first compound 0.0949 µM): 112%
viability, T/C (second compound 0.0316 µM, first compound 0.3 µM): 108%
viability, T/C (second compound 0.1 µM, first compound 0.000949 µM): 110%
viability, T/C (second compound 0.1 µM, first compound 0.003 µM): 94.5%
viability, T/C (second compound 0.1 µM, first compound 0.00949 µM): 107%
viability, T/C (second compound 0.1 µM, first compound 0.03 µM): 110%
viability, T/C (second compound 0.1 µM, first compound 0.0949 µM): 112%
viability, T/C (second compound 0.1 µM, first compound 0.3 µM): 96.8%
viability, T/C (second compound 0.316 µM, first compound 0.000949 µM): 115%
viability, T/C (second compound 0.316 µM, first compound 0.003 µM): 116%
viability, T/C (second compound 0.316 µM, first compound 0.00949 µM): 109%
viability, T/C (second compound 0.316 µM, first compound 0.03 µM): 87.3%
viability, T/C (second compound 0.316 µM, first compound 0.0949 µM): 109%
viability, T/C (second compound 0.316 µM, first compound 0.3 µM): 95.9%
viability, T/C (second compound 1 µM, first compound 0.000949 µM): 93.7%
viability, T/C (second compound 1 µM, first compound 0.003 µM): 107%
viability, T/C (second compound 1 µM, first compound 0.00949 µM): 93.6%
viability, T/C (second compound 1 µM, first compound 0.03 µM): 104%
viability, T/C (second compound 1 µM, first compound 0.0949 µM): 105%
viability, T/C (second compound 1 µM, first compound 0.3 µM): 92.9%

O=C(c1ccc(F)c(F)c1Nc1ccc(I)cc1F)N1CC(O)([C@@H]2CCCCN2)C1 + CNC(C)C(=O)NC1CN(S(=O)(=O)c2cccc(S(=O)(=O)N3CCC4CCC(C(=O)NC(c5ccccc5)c5ccccc5)N4C(=O)C(NC(=O)C(C)NC)C3)c2)CCC2CCC(C(=O)NC(c3ccccc3)c3ccccc3)N2C1=O
IC50 (second compound 0.01 µM): > 1000 nM
IC50 (second compound 0.0316 µM): > 1000 nM
IC50 (second compound 0.1 µM): > 1000 nM
IC50 (second compound 0.316 µM): > 1000 nM
IC50 (second compound 1 µM): > 1000 nM
viability, T/C [1]: 98.5%
viability, T/C [2]: 113%
viability, T/C [3]: 102%
viability, T/C [4]: 101%
viability, T/C [5]: 102%
viability, T/C [6]: 79.6%
viability, T/C [7]: 94.7%
viability, T/C [8]: 103%
viability, T/C [9]: 88%
viability, T/C [10]: 102%
viability, T/C [11]: 100%
viability, T/C [12]: 90.3%
viability, T/C [13]: 112%
viability, T/C [14]: 95.2%
viability, T/C [15]: 104%
viability, T/C [16]: 97.2%
viability, T/C [17]: 92.1%
viability, T/C [18]: 101%
viability, T/C [19]: 102%
viability, T/C [20]: 101%
viability, T/C [21]: 104%
viability, T/C [22]: 105%
viability, T/C [23]: 100%
viability, T/C [24]: 108%
viability, T/C [25]: 109%
viability, T/C [26]: 111%
viability, T/C [27]: 101%
viability, T/C [28]: 90.2%
viability, T/C [29]: 99.7%
viability, T/C [30]: 84.7%
